Patent US10155768B2, “Fused pyrimidine compound or salt thereof” (TAIHO PHARMACEUTICAL CO., LTD., priority 2016, dated 2018)

Assay: Evaluation of stability in liver microsome
Conditions: mouse liver microsome 0.25 mg/mL, 1 μM test compound, 37° C. for 30 minutes

| Remaining (%) | Structure (SMILES) |
| --- | --- |
| 62% | COCc1ccc(NC(=O)c2c(C#Cc3cccc(NCc4ccncc4)c3)n(C3(C)CC3)c3ncnc(N)c23)cc1 [Example 122, 4-amino-N-(4-(methoxymethyl)phenyl)-7-(1-methylcyclopropyl)-6-((3-((pyridin-4-ylmethyl)amino)phenyl)ethynyl)-7H-pyrrolo[2,3-d]pyrimidine-5-carboxamide] |
| 76% | COCc1ccc(NC(=O)c2c(OCC(C)OC)n(C3(C)CC3)c3ncnc(N)c23)cc1 (stereo not drawn) [Example 100, 4-amino-N-(4(methoxymethyl)phenyl)-6-(2-methoxypropoxy)-7-(1-methylcyclopropyl)-7H-pyrrolo[2,3-d]pyrimidine-5-carboxamide] |
| 68% | COCc1ccc(NC(=O)c2c(C#CCCN3CCOCC3)n(C3(C)CC3)c3ncnc(N)c23)cc1 [Example 187, 4-amino-N-(4-(methoxymethyl)phenyl)-7-(1-methylcyclopropyl)-6-(4-morpholinobut-1-yn-1-yl)-7H-pyrrolo[2,3-d]pyrimidine-5-carboxamide] |
| 58% | COCc1ccc(NC(=O)c2c(C#CC3CCOCC3)n(C3(C)CC3)c3ncnc(N)c23)cc1F [Example 205, 4-amino-N-(3-fluoro-4-(methoxymethyl)phenyl)-7-(1-methylcyclopropyl)-6-((tetrahydro-2H-pyran-4-yl)ethynyl)-7H-pyrrolo[2,3-d]pyrimidine-5-carboxamide] |
| 61% | COCc1ccc(NC(=O)c2c(-c3ccc(O)cc3)n(C3(C)CC3)c3ncnc(N)c23)cc1 [Example 148, 4-amino-6-(4-hydroxyphenyl)-N-(4-(methoxymethyl)phenyl)-7-(1-methylcyclopropyl)-7H-pyrrolo[2,3-d]pyrimidine-5-carboxamide] |
| 68% | COCc1ccc(NC(=O)c2c(C#Cc3ccc[nH]3)n(C3(C)CC3)c3ncnc(N)c23)cc1 [Example 161, 6-((1H-pyrrol-2-yl)ethynyl)-4-amino-N-(4-(methoxymethyl)phenyl)-7-(1-methylcyclopropyl)-7H-pyrrolo[2,3-d]pyrimidine-5-carboxamide] |
| 66% | COCc1ccc(NC(=O)c2c(C#CCC(C)(C)O)n(C3(C)CC3)c3ncnc(N)c23)cc1 [Example 86, 4-amino-6-(4-hydroxy-4-methylpent-1-yn-1-yl)-N-[4-(methoxymethyl)phenyl]-7-(1-methylcyclopropyl)-7H-pyrrolo[2,3-d]pyrimidine-5-carboxamide] |
| 80% | COCc1ccc(NC(=O)c2c(-c3cn[nH]c3)n(C3(C)CC3)c3ncnc(N)c23)cc1 [Example 167, 4-amino-N-(4-(methoxymethyl)phenyl)-7-(1-methylcyclopropyl)-6-(1H-pyrazol-4-yl)-7H-pyrrolo[2,3-d]pyrimidine-5-carboxamide] |
| 68% | COCc1ccc(NC(=O)c2c(C#CCC3(O)CCOCC3)n(C3(C)CC3)c3ncnc(N)c23)cc1 [Example 143, 4-amino-6-(3-(4-hydroxytetrahydro-2H-pyran-4-yl)prop-1-yn-1-yl)-N-(4-(methoxymethyl)phenyl)-7-(1-methylcyclopropyl)-7H-pyrrolo[2,3-d]pyrimidine-5-carboxamide] |
| 72% | COCc1ccc(NC(=O)c2c(C#Cc3ccc(Cl)nc3)n(C3(C)CC3)c3ncnc(N)c23)cc1 [Example 120, 4-amino-6-((6-chloropyridin-3-yl)ethynyl)-N-(4-(methoxymethyl)phenyl)-7-(1-methylcyclopropyl)-7H-pyrrolo[2,3-d]pyrimidine-5-carboxamide] |
| 67% | COCc1ccc(NC(=O)c2c(C#CCC3NC(=O)NC3=O)n(C3(C)CC3)c3ncnc(N)c23)cc1 (stereo not drawn) [Example 156, 4-amino-6-(3-(2,5-dioxoimidazolidin-4-yl)prop-1-yn-1-yl)-N-(4-(methoxymethyl)phenyl)-7-(1-methylcyclopropyl)-7H-pyrrolo[2,3-d]pyrimidine-5-carboxamide] |
| 60% | COCc1ccc(NC(=O)c2cn(C(C)(C)CF)c3ncnc(N)c23)cc1 [Example 26, 4-amino-7-(1-fluoro-2-methylpropan-2-yl)-N-(4-(methoxymethyl)phenyl)-7H-pyrrolo[2,3-d]pyrimidine-5-carboxamide] |
| 53% | COCc1ccc(NC(=O)c2c(C#Cc3cncnc3)n(C3(C)CC3)c3ncnc(N)c23)cc1 [Example 196, 4-amino-N-(4-(methoxymethyl)phenyl)-7-(1-methylcyclopropyl)-6-(pyrimidin-5-ylethynyl)-7H-pyrrolo[2,3-d]pyrimidine-5-carboxamide] |
| 72% | COCc1ccc(NC(=O)c2c(C#CC3(O)CCOC3)n(C3(C)CC3)c3ncnc(N)c23)cc1 (stereo not drawn) [Example 177, 4-amino-6-((3-hydroxytetrahydrofuran-3-yl)ethynyl)-N-(4-(methoxymethyl)phenyl)-7-(1-methylcyclopropyl)-7H-pyrrolo[2,3-d]pyrimidine-5-carboxamide] |
| 78% | COCc1ccc(NC(=O)c2c(C#Cc3cnc4ccoc4c3)n(C3(C)CC3)c3ncnc(N)c23)cc1 [Example 159, 4-amino-6-(furo[3,2-b]pyridin-6-ylethynyl)-N-(4-(methoxymethyl)phenyl)-7-(1-methylcyclopropyl)-7H-pyrrolo[2,3-d]pyrimidine-5-carboxamide] |
| 60% | COCc1ccc(NC(=O)c2c(C#CCC3(O)CCC3)n(C3(C)CC3)c3ncnc(N)c23)cc1 [Example 103, 4-amino-6-(3-(1-hydroxycyclobutyl)prop-1-yn-1-yl)-N-(4-(methoxymethyl)phenyl)-7-(1-methylcyclopropyl)-7H-pyrrolo[2,3-d]pyrimidine-5-carboxamide] |
| 62% | COCc1ccc(NC(=O)c2c(C#Cc3cn(C)nc3C)n(C3(C)CC3)c3ncnc(N)c23)cc1 [Example 181, 4-amino-6-((1,3-dimethyl-1H-pyrazol-4-yl)ethynyl)-N-(4-(methoxymethyl)phenyl)-7-(1-methylcyclopropyl)-7H-pyrrolo[2,3-d]pyrimidine-5-carboxamide] |
| 52% | COCc1ccc(NC(=O)c2c(OCC3CCCC3)n(C3(C)CC3)c3ncnc(N)c23)cc1 [Example 140, 4-amino-6-(cyclopentylmethoxy)-N-(4-(methoxymethyl)phenyl)-7-(1-methylcyclopropyl)-7H-pyrrolo[2,3-d]pyrimidine-5-carboxamide] |
| 51% | COCc1ccc(NC(=O)c2c(C#Cc3cncs3)n(C3(C)CC3)c3ncnc(N)c23)cc1 [Example 193, 4-amino-N-[4-(methoxymethyl)phenyl]-7-(1-methylcyclopropyl)-6-(thiazol-5-ylethynyl)-7H-pyrrolo[2,3-d]pyrimidine-5-carboxamide] |
| 77% | COCc1ccc(NC(=O)c2c(C#CCN3CCN(C)CC3)n(C3(C)CC3)c3ncnc(N)c23)cc1 [Example 132, 4-amino-N-(4-(methoxymethyl)phenyl)-7-(1methylcyclopropyl)-6-(3-(4-methylpiperazin-1-yl)prop-1-yn-1-yl)-7H-pyrrolo[2,3-d]pyrimidine-5-carboxamide] |
| 59% | COCc1ccc(NC(=O)c2c(C#CCN3CCCC3)n(C3(C)CC3)c3ncnc(N)c23)cc1 [Example 88, 4-amino-N-[4-(methoxymethyl)phenyl]-7-(1-methylcyclopropyl)-6-(3-(pyrrolidin-1-yl)prop-1-yn-1-yl)-7H-pyrrolo[2,3-d]pyrimidine-5-carboxamide] |
